Results reported in PubChem BioAssay AID1963960 (Molecular Pharmacology Branch, DTP, NCI, 2024).
pIC50: −log10 of the molar value.

System: MDA-MB-468 spheroids with HUVEC/MSC, viability
Experiment: Anticancer human tumor MDA-MB-468 cell line growth inhibition [PI3K];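 further: spheroids exposed to agents for seven days before readout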;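 on viability, T/C: 100% = DMSO vehicle control viability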
Settings: for pIC50: curve of first compound; for viability, T/C: stronger effect = lower value; active means viability on the fitted dose curve at most 10% of control; inactive means the rest
Procedure, shortened: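 Targeted small molecules plus PI3K inhibitors, half-log dose series from Cmax (default top 10 microM), were applied to heterotypic spheroids of cancer cells with HUVEC and MSCs. Viability indicated growth inhibition.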

[1] = second compound 0.00316 µM, first compound 0.0316 µM
[2] = second compound 0.00316 µM, first compound 0.1 µM
[3] = second compound 0.00316 µM, first compound 0.316 µM
[4] = second compound 0.00316 µM, first compound 1 µM
[5] = second compound 0.00316 µM, first compound 3.16 µM
[6] = second compound 0.00316 µM, first compound 10 µM
[7] = second compound 0.01 µM, first compound 0.0316 µM
[8] = second compound 0.01 µM, first compound 0.1 µM
[9] = second compound 0.01 µM, first compound 0.316 µM
[10] = second compound 0.01 µM, first compound 1 µM
[11] = second compound 0.01 µM, first compound 3.16 µM
[12] = second compound 0.01 µM, first compound 10 µM
[13] = second compound 0.0316 µM, first compound 0.0316 µM
[14] = second compound 0.0316 µM, first compound 0.1 µM
[15] = second compound 0.0316 µM, first compound 0.316 µM
[16] = second compound 0.0316 µM, first compound 1 µM
[17] = second compound 0.0316 µM, first compound 3.16 µM
[18] = second compound 0.0316 µM, first compound 10 µM
[19] = second compound 0.1 µM, first compound 0.0316 µM
[20] = second compound 0.1 µM, first compound 0.1 µM
[21] = second compound 0.1 µM, first compound 0.316 µM
[22] = second compound 0.1 µM, first compound 1 µM
[23] = second compound 0.1 µM, first compound 3.16 µM
[24] = second compound 0.1 µM, first compound 10 µM
[25] = second compound 0.316 µM, first compound 0.0316 µM
[26] = second compound 0.316 µM, first compound 0.1 µM
[27] = second compound 0.316 µM, first compound 0.316 µM
[28] = second compound 0.316 µM, first compound 1 µM
[29] = second compound 0.316 µM, first compound 3.16 µM
[30] = second compound 0.316 µM, first compound 10 µM
[31] = second compound 1 µM, first compound 0.0316 µM
[32] = second compound 1 µM, first compound 0.1 µM
[33] = second compound 1 µM, first compound 0.316 µM
[34] = second compound 1 µM, first compound 1 µM
[35] = second compound 1 µM, first compound 3.16 µM
[36] = second compound 1 µM, first compound 10 µM

C=CC(=O)N1CCN(c2nc(=O)n(-c3c(C)ccnc3C(C)C)c3nc(-c4c(O)cccc4F)c(F)cc23)C(C)C1 (stereo not given) + COc1c(OCCCN2CCOCC2)ccc2c3n(c(=NC(=O)c4cnc(N)nc4)nc12)CCN3
> 7.50: pIC50 (second compound 0.316 µM) | pIC50 (second compound 1 µM)
< 5.00: pIC50 (second compound 0.00316 µM) | pIC50 (second compound 0.01 µM) | pIC50 (second compound 0.0316 µM) | pIC50 (second compound 0.1 µM)
inactive: viability, T/C [1] 92% | viability, T/C [2] 92.9% | viability, T/C [3] 97.5% | viability, T/C [4] 109% | viability, T/C [5] 104% | viability, T/C [6] 79.1% | viability, T/C [7] 81.1% | viability, T/C [8] 80.5% | viability, T/C [9] 102% | viability, T/C [10] 97% | viability, T/C [11] 99.7% | viability, T/C [12] 70.1% | viability, T/C [13] 75.2% | viability, T/C [14] 73.4% | viability, T/C [15] 79.8% | viability, T/C [16] 89.7% | viability, T/C [17] 80.2% | viability, T/C [18] 65% | viability, T/C [19] 56.7% | viability, T/C [20] 58.4% | viability, T/C [21] 50.9% | viability, T/C [22] 63.1% | viability, T/C [23] 61.5% | viability, T/C [24] 41.3% | viability, T/C [25] 29.9% | viability, T/C [26] 26.6% | viability, T/C [27] 27.8% | viability, T/C [28] 31.4% | viability, T/C [29] 28.2% | viability, T/C [30] 18.4%
active: viability, T/C [31] 4.14% | viability, T/C [32] 3.02% | viability, T/C [33] 3.41% | viability, T/C [34] 3.9% | viability, T/C [35] 3.76% | viability, T/C [36] 2.73%

CC(C)NCC(C(=O)N1CCN(c2ncnc3c2C(C)CC3O)CC1)c1ccc(Cl)cc1 (stereo not given) + COc1c(OCCCN2CCOCC2)ccc2c3n(c(=NC(=O)c4cnc(N)nc4)nc12)CCN3
6.15: pIC50 (second compound 0.0316 µM)
6.04: pIC50 (second compound 0.00316 µM)
> 7.50: pIC50 (second compound 0.316 µM) | pIC50 (second compound 1 µM)
inactive: viability, T/C [1] 89.4% | viability, T/C [2] 79.2% | viability, T/C [3] 70.6% | viability, T/C [4] 47.7% | viability, T/C [5] 31.4% | viability, T/C [6] 24.2% | viability, T/C [7] 83.2% | viability, T/C [8] 81.3% | viability, T/C [9] 65.4% | viability, T/C [10] 44.5% | viability, T/C [11] 31.7% | viability, T/C [12] 23.6% | viability, T/C [13] 76.3% | viability, T/C [14] 68.5% | viability, T/C [15] 66.4% | viability, T/C [16] 42.3% | viability, T/C [17] 28.9% | viability, T/C [18] 20.2% | viability, T/C [19] 57.4% | viability, T/C [20] 55.2% | viability, T/C [21] 49.1% | viability, T/C [22] 34.7% | viability, T/C [23] 27.1% | viability, T/C [24] 14.7% | viability, T/C [25] 27.1% | viability, T/C [26] 27% | viability, T/C [27] 24.5% | viability, T/C [28] 21.2% | viability, T/C [29] 15.1% | viability, T/C [30] 9.47%
6.66: pIC50 (second compound 0.1 µM)
6.12: pIC50 (second compound 0.01 µM)
active: viability, T/C [31] 4.25% | viability, T/C [32] 3.87% | viability, T/C [33] 2.81% | viability, T/C [34] 3.58% | viability, T/C [35] 3.71% | viability, T/C [36] 2.69%

CCN1CCN(Cc2ccc(Nc3ncc(F)c(-c4cc(F)c5nc(C)n(C(C)C)c5c4)n3)nc2)CC1 + COc1c(OCCCN2CCOCC2)ccc2c3n(c(=NC(=O)c4cnc(N)nc4)nc12)CCN3
> 8.50: pIC50 (second compound 0.316 µM) | pIC50 (second compound 1 µM)
active: viability, T/C (second compound 1 µM, first compound 0.00316 µM) 4.09% | viability, T/C (second compound 1 µM, first compound 0.01 µM) 4.14% | viability, T/C [31] 2.96% | viability, T/C [32] 4.33% | viability, T/C [33] 6.64% | viability, T/C [34] 9.9%
< 6.00: pIC50 (second compound 0.00316 µM) | pIC50 (second compound 0.01 µM) | pIC50 (second compound 0.0316 µM) | pIC50 (second compound 0.1 µM)
inactive: viability, T/C (second compound 0.00316 µM, first compound 0.00316 µM) 96.9% | viability, T/C (second compound 0.00316 µM, first compound 0.01 µM) 90.8% | viability, T/C [1] 88.2% | viability, T/C [2] 96.8% | viability, T/C [3] 99.5% | viability, T/C [4] 69.9% | viability, T/C (second compound 0.01 µM, first compound 0.00316 µM) 85.3% | viability, T/C (second compound 0.01 µM, first compound 0.01 µM) 88.8% | viability, T/C [7] 82% | viability, T/C [8] 88.8% | viability, T/C [9] 84.2% | viability, T/C [10] 54.4% | viability, T/C (second compound 0.0316 µM, first compound 0.00316 µM) 77% | viability, T/C (second compound 0.0316 µM, first compound 0.01 µM) 72.2% | viability, T/C [13] 77.5% | viability, T/C [14] 73.6% | viability, T/C [15] 81.4% | viability, T/C [16] 66.1% | viability, T/C (second compound 0.1 µM, first compound 0.00316 µM) 56.6% | viability, T/C (second compound 0.1 µM, first compound 0.01 µM) 72.4% | viability, T/C [19] 61.9% | viability, T/C [20] 59% | viability, T/C [21] 64% | viability, T/C [22] 40.3% | viability, T/C (second compound 0.316 µM, first compound 0.00316 µM) 26.9% | viability, T/C (second compound 0.316 µM, first compound 0.01 µM) 25.1% | viability, T/C [25] 28.1% | viability, T/C [26] 29.9% | viability, T/C [27] 31.7% | viability, T/C [28] 24.4%

Cn1ncc(Cl)c1-c1cc(C(=O)NC(CN)Cc2cccc(F)c2)sc1Cl (stereo not given) + COc1c(OCCCN2CCOCC2)ccc2c3n(c(=NC(=O)c4cnc(N)nc4)nc12)CCN3
> 7.50: pIC50 (second compound 0.1 µM) | pIC50 (second compound 0.316 µM) | pIC50 (second compound 1 µM)
inactive: viability, T/C [1] 78.5% | viability, T/C [2] 66.2% | viability, T/C [3] 50.1% | viability, T/C [4] 36.1% | viability, T/C [5] 25.3% | viability, T/C [6] 17.2% | viability, T/C [7] 71.8% | viability, T/C [8] 64.2% | viability, T/C [9] 42.7% | viability, T/C [10] 33.2% | viability, T/C [11] 22.9% | viability, T/C [12] 14.6% | viability, T/C [13] 66.5% | viability, T/C [14] 58.7% | viability, T/C [15] 37.2% | viability, T/C [16] 28.5% | viability, T/C [17] 22.1% | viability, T/C [18] 12.1% | viability, T/C [19] 49.6% | viability, T/C [20] 40% | viability, T/C [21] 33.9% | viability, T/C [22] 25.4% | viability, T/C [23] 17.5% | viability, T/C [25] 25.1% | viability, T/C [26] 21.1% | viability, T/C [27] 20.4% | viability, T/C [28] 14.9% | viability, T/C [29] 12.7%
6.63: pIC50 (second compound 0.01 µM)
6.48: pIC50 (second compound 0.00316 µM)
active: viability, T/C [24] 7.31% | viability, T/C [30] 4.16% | viability, T/C [31] 3.44% | viability, T/C [32] 3.28% | viability, T/C [33] 3.02% | viability, T/C [34] 3.44% | viability, T/C [35] 3.8% | viability, T/C [36] 1.32%
6.82: pIC50 (second compound 0.0316 µM)

Cn1nccc1Nc1nccc(-c2ccn(C(CO)c3ccc(Cl)c(F)c3)c(=O)c2)n1 (stereo not given) + COc1c(OCCCN2CCOCC2)ccc2c3n(c(=NC(=O)c4cnc(N)nc4)nc12)CCN3
5.12: pIC50 (second compound 0.0316 µM)
inactive: viability, T/C [1] 90.7% | viability, T/C [2] 83% | viability, T/C [3] 79.1% | viability, T/C [4] 85.3% | viability, T/C [5] 81.3% | viability, T/C [6] 73.6% | viability, T/C [7] 71.1% | viability, T/C [8] 86.5% | viability, T/C [9] 78.7% | viability, T/C [10] 71.8% | viability, T/C [11] 77.9% | viability, T/C [12] 76.9% | viability, T/C [13] 71.3% | viability, T/C [14] 68.7% | viability, T/C [15] 71.7% | viability, T/C [16] 73.9% | viability, T/C [17] 61.9% | viability, T/C [18] 46% | viability, T/C [19] 56.3% | viability, T/C [20] 54.9% | viability, T/C [21] 52.5% | viability, T/C [22] 52.4% | viability, T/C [23] 50.9% | viability, T/C [24] 48.6% | viability, T/C [25] 24.6% | viability, T/C [26] 23.3% | viability, T/C [27] 23.3% | viability, T/C [28] 24.9% | viability, T/C [29] 26% | viability, T/C [30] 19.9%
5.36: pIC50 (second compound 0.1 µM)
active: viability, T/C [31] 3.06% | viability, T/C [32] 2.27% | viability, T/C [33] 2.37% | viability, T/C [34] 2.51% | viability, T/C [35] 1.79% | viability, T/C [36] 0.85%
> 7.50: pIC50 (second compound 0.316 µM) | pIC50 (second compound 1 µM)
< 5.00: pIC50 (second compound 0.00316 µM) | pIC50 (second compound 0.01 µM)
